Measurements as given in patent US20150216182A1, “COMPOSITIONS AND METHODS OF THE ATTRACTION AND REPULSION OF INSECTS” (Olfactor Laboratories, Inc., priority 2012, published 2015).
Structures can show the parent of a compound that is named as a salt. Where two headings read alike, the source gives them in different places.

How the values were obtained:
larvae = experiment: larvicidal activity assay; type: in vivo; settings: for pest or weed control at 0.25 %: read-out: % Lethality with 0.25% compound conc.; for pest or weed control at 100 ppm: read-out: % Lethality at 100 ppm
Protocol: A 6-well plate (Corning Life Sciences, Tewksbury, Mass.) is used to test a compound's larvicidal activity. […] After a 24 hour exposure, the number of dead larvae are counted and recorded.
The results are presented in Table 17 as % lethality (the number of dead larvae divided by the total number of larvae).

[1] = system: bed bugs (Cimex lectularius); experiment: bed bug repellency assay; type: in vivo; settings: for % Rep (bed bug repellency): compound or combination on filter paper harborage, ten bed bugs
Protocol: Compounds and combinations of compounds of the present invention were assayed for their ability to repel bed bugs (Cimex lectularius) using a bed bug repellency assay. This assay takes advantage of the bed bug's natural tendency to seek harborage. Two petri dishes were obtained and the inner areas of each were sanded down (leaving the perimeter smooth.) Talc was applied on the perimeter and on the inside walls of the petri dishes with a small paint brush to prevent bed bugs from escaping. A cut off top portion of a solo bathroom cup was placed upside down in the center of one petri dish. A large plastic secondary container was gathered and a paper towel was laid down inside the bottom. The petri dish was then placed inside and ten bed bugs were placed inside the cut off portion of the solo cup. Next, two pieces of filter paper were cut down the middle to yield 4 equally sized halves. 3 pieces were placed inside a glass dish ([…]) and the remaining piece was placed in a separate dish. All 4 pieces were folded down the middle to create a “tent” or “harborage” when laid such that the folded crease faced up. 100 microliters of isopropyl alcohol was pipetted into 3 pieces of filter paper (all housed in the first glass dish.) In a separate 4 ml vial, 90 microliters of isopropyl alcohol was combined and vortexed with 10 microliters of the compound or compound combination being tested. 100 microliters of this solution [comprising a total of 100 mg of compound(s)] was pipetted onto the filter paper in the separate dish. All filter papers were then allowed to dry. Once dry, experiments were conducted first with two filter paper halves comprising only the isopropyl alcohol (control experiment) and then with the remaining filter paper halves [one with only isopropyl alcohol and one comprising the test compound(s).] Filter paper halves were placed on opposing sides of experimental petri dishes and bed bugs were allowed to move freely within the dishes for 5 minutes. Movement of bed bugs beneath each filter paper tent was recorded. […] In the Table, “Rep” refers to repellency and “Cmpd” refers to compound.

cpA neurons [2] = experiment: extracellular single-sensillum electrophysiology: inhibition of CO2-responsive (cpA) neuronal activity; settings: for Class: Table 10, single compounds, percent reduction in cpA activity compared to baseline; for Class (inhibitor class of the individual component): Inh = inhibitor
female mosquitoes [3] = experiment: whole plant or invertebrate; settings: 2 h; for mortality at 200 µg/mL: read-out: % mortality with 0.2 mg/ml; for mortality at 2000 µg/mL: read-out: % mortality with 2 mg/ml
cpA neurons [4] = experiment: extracellular single-sensillum electrophysiology: activation of cpA neuronal activity; settings: for Comp B Class / Comp A Class: Table 9; for Comp B Class: component B tested individually; for Class: Table 6, single compounds, increase over baseline cpA neuronal activity; for Comp A Class: component A tested individually; for Class B (activator class of the individual component): Table 15, single component alone, Mod Actv; for Class (activator class of the individual component): Actv = activator
female mosquitoes [5] = settings: single compound, female mosquitoes, two hours
[6] = 0.25% compound, 24 hour exposure, dead larvae / total larvae
[7] = 100 ppm compound, 24 hour exposure, dead larvae / total larvae
[8] = Table 13, single component alone
[9] = Table 16, single component alone

Row | Compound | % Rep (bed bug repellency) [1] | Class (cpA neurons [2]) | pest or weed control at 0.25 % (larvae; [6]) | pest or weed control at 100 ppm (larvae; [7]) | mortality at 200 µg/mL (female mosquitoes [3]) | mortality at 2000 µg/mL (female mosquitoes [3]) | Class (cpA neurons [4]) | other results
1 | 2-methoxy-3(5or6)isopropylpyrazine [OLI0072] | 100% | Moderate Inhibitor (moderate inhibitors (reducing activity by 40-60%)) |  |  |  |  |  | % Lethality with 0.25% compound conc. (larvae; [6]): 100% lethal; % Lethality at 100 ppm (larvae; [7]): 0% lethal; Class (inhibitor class of the individual component) (cpA neurons [2]; [8]): Mod; Class (inhibitor class of the individual component) (cpA neurons [2]; [9]): Mod; inhibitor class of single compound (cpA neurons [2]): moderate inhibitor (40-60% reduction in neuronal activity as compared to baseline activity of the neuron)
2 | CCCCCC(C)=O [OLI0092, methylamylketone] | 8% | Mild Inhibitor (mild inhibitors (reducing activity by 20-40%)) | 73% | 32% | 0% | 0% |  | Comp B Class (cpA neurons [4]): Mild Inh (mild inhibitors (reducing activity by 20-40%))
3 | CCc1ncc(C)nc1CC [OLI0067, 2,3-diethyl-5-methylpyrazine] | 100% | Strong Inhibitor (strong inhibitors (reducing activity >60%)) | 100% | 0% | 0% | 0% |  | 
4 | CCc1nccnc1C [OLI0069, 2-ethyl-3-methylpyrazine] | 10% | Strong Inhibitor (strong inhibitors (reducing activity >60%)) | 100% | 0% | 0% | 0% |  | 
5 | CCc1nccnc1CC [OLI0068, 2,3-diethylpyrazine] | 24% | Strong Inhibitor (strong inhibitors (reducing activity >60%)) | 100% | 0% | 0% | 0% |  | Class (inhibitor class of the individual component) (cpA neurons [2]; [9]): Strng
6 | C=CCc1ccc(O)c(OC)c1 [OLI0102, Eugenol] | 100% |  | 100% | 25% | 0% | 100% |  | ability to repel bed bugs ([1]; 100 microliters solution on filter paper tent, 5 minutes): surprisingly strong ability to repel bed bugs; Class (inhibitor class of the individual component) (cpA neurons [2]; [8]): Mild; Class (inhibitor class of the individual component) (cpA neurons [2]; [9]): Mild
7 | CCCCOC=O [OLI0007, butyl formate] | 6% |  |  |  | 0% | 0% | Strong Activator (strong activators yield an increase in activity that is >60 spk/sec over baseline neuronal activity) | pest or weed control at 100 ppm (larvae; 24 h): 0%; pest or weed control at 0.25 % (larvae; 24 h): 0%
8 | CC(=O)c1ccco1 [OLI0017, 2-furyl methyl ketone] | 60% |  | 100% | 50% | 0% | 0% | Moderate Activator (Moderate activators yield an increase in neuronal activity that is between 40 and 60 spk/sec over baseline neuronal activity) | Comp A Class (cpA neurons [4]): Mod; Class B (activator class of the individual component) (cpA neurons [4]): Mod
9 | CCOC(=O)C(C)O (centres unmarked) [OLI0010, ethyllactate] | 37% |  | 0% | 0% | 0% | 0% | Strong Activator (strong activators yield an increase in activity that is >60 spk/sec over baseline neuronal activity) | 
10 | 2-ethyl-5(6)-methylpyrazine [OLI0032] |  |  |  |  |  |  | Mild Activator (mild activators yield an increase in neuronal activity that is between 20 and 40 spk/sec over baseline neuronal activity) | % mortality with 0.2 mg/ml (female mosquitoes [5]; 0.2 mg/ml on filter paper): 0%; % mortality with 2 mg/ml (female mosquitoes [5]; 2 mg/ml on filter paper): 0%
11 | Cc1nccnc1C [OLI0015, 2,3-dimethylpyrazine] | 77% |  | 0% | 0% | 0% | 0% | Moderate Activator (Moderate activators yield an increase in neuronal activity that is between 40 and 60 spk/sec over baseline neuronal activity) | Comp A Class (cpA neurons [4]): Mod; Comp B Class (cpA neurons [4]): Mod; Class (activator class of the individual component) (cpA neurons [4]; [8]): Mod; Class B (activator class of the individual component) (cpA neurons [4]): Mod; Class (activator class of the individual component) (cpA neurons [4]; [9]): Mod; activator class of single compound (cpA neurons [4]; single compound): moderate activator (spike rate of 40-60 spk/sec over the baseline activity of the neuron)
12 | COc1ccccc1O [OLI0012, guaiacol] | 100% |  | 100% | 0% | 0% | 0% | Strong Activator (strong activators yield an increase in activity that is >60 spk/sec over baseline neuronal activity) | 
13 | CCCCC=O [OLI0066, valeraldehyde] | 33% |  | 35% | 0% | 0% | 0% | Mild Activator (mild activators yield an increase in neuronal activity that is between 20 and 40 spk/sec over baseline neuronal activity) | 
14 | CCCCCCC(=O)OC [OLI0091, methyl heptanoate] | 20% | Mild Inhibitor (mild inhibitors (reducing activity by 20-40%)) | 72% | 0% | 0% | 0% |  | Comp A Class (cpA neurons [4]): Mild Inh (mild inhibitors (reducing activity by 20-40%))
15 | Cc1cnc(C)c(C)n1 [OLI0014, 2,3,5-trimethylpyrazine] | 59% |  | 21% | 0% | 0% | 0% | Moderate Activator (Moderate activators yield an increase in neuronal activity that is between 40 and 60 spk/sec over baseline neuronal activity) | Comp A Class (cpA neurons [4]): Mod; Comp B Class (cpA neurons [4]): Mod; Class B (activator class of the individual component) (cpA neurons [4]): Mod
16 | CCc1nccnc1OC [OLI0071, 2-ethyl-3-methoxypyrazine] | 29% | Moderate Inhibitor (moderate inhibitors (reducing activity by 40-60%)) | 100% | 0% | 0% | 0% |  | Class (inhibitor class of the individual component) (cpA neurons [2]; [8]): Mod; Class (inhibitor class of the individual component) (cpA neurons [2]; [9]): Mod; inhibitor class of single compound (cpA neurons [2]): moderate inhibitor (40-60% reduction in neuronal activity as compared to baseline activity of the neuron)
17 | CCCCCCC/C=C/C=O [OLI0077, trans-2-decenal] | 72% | Moderate Inhibitor (moderate inhibitors (reducing activity by 40-60%)) |  |  |  |  |  | Class (inhibitor class of the individual component) (cpA neurons [2]; [8]): Mod
18 | CC(=O)c1ccc(C)o1 [OLI0016, 2-acetyl-5-methyl furan] | 86% |  | 100% | 0% | 0% | 0% | Moderate Activator (Moderate activators yield an increase in neuronal activity that is between 40 and 60 spk/sec over baseline neuronal activity) | Comp A Class (cpA neurons [4]): Mod; Comp B Class (cpA neurons [4]): Mod; Class B (activator class of the individual component) (cpA neurons [4]): Mod
